Source: patent US10258701B2, “Labeled evans blue dye derivative for in vivo serum albumin labeling” (The United States of America, as represented by the …, priority 2015, dated 2019)

Assays:
[1] = Ex vivo biodistribution in Balb/C mice with absorbed doses extrapolated to adult human male (OLINDA/EXM); conditions: mouse
Description: For ex vivo biodistribution and dosimetry evaluation, each BALB/C mouse was injected with 1.85 MBq of ^68Ga-NEB. At different time points after tracer injection (5 min, 30 min, 1 h, 3 h and 6 h, n=5/time point), the mice were sacrificed for tissue and organ collection, including blood, muscle, bone, liver, kidneys, spleen, pancreas, stomach, intestine, heart and lung. The samples were wet weighed, and measured for radioactivity in a γ-counter (Wallac 1470-002, Perkin-Elmer). The results were presented as percentage injected dose per gram of tissue (% ID/g). For each mouse, the radioactivity of the tissue samples was calibrated against a known aliquot of the injected tracer and normalized to a mean body mass of each group. Values were expressed as mean±SD (n=5/group). Determination of organ doses for a reference human was made using the OLINDA/EXM program (Vanderbilt University, Nashville, Tenn.).
In order to estimate the safe dose for clinical use, an ex vivo biodistribution study was performed in normal Balb/C mice. Absorbed doses for major organs and whole body were then extrapolated to adult human male of a body weight of 73.7 Kg using OLINDA EXM software. The kidneys received the highest absorbed doses (mean absorbed dose, 0.104˜0.135 mSv/MBq), resulting from abundant blood supply and tracer excretion through the renal urinary tract. The mean effective dose of ^68Ga-NEB was 0.0151 to 0.0159 mSv/MBq. With an injected dose of 185 MBq (5 mCi), the patient would be exposed to an effective radiation dose of 2.94 mSv, which is much lower than the dose limit of 20 mSv for the second risk category defined by the 2007 International Commission on Radiological Protection.

[2] = Multiple time point whole-body PET in healthy volunteers (SUV); format: in vivo, human
Description: (§1) This clinical study was approved by the Institute Review Board of Peking Union Medical College Hospital, Chinese Academy of Medical Sciences and Peking Union Medical College. Three healthy volunteers (2 males and 1 female) were enrolled with written informed consent to validate the safety of ^68Ga-NEB. No fasting, hydration or other specific preparation was requested on the day of imaging. Any unusual or adverse clinical symptoms were recorded on the day of imaging and during the 2-week follow-up period.
All three healthy volunteers underwent whole-body PET acquisitions (Biograph mCT PET/CT system, Siemens) at multiple time points after tracer injection. After the whole-body low-dose CT scan (140 kV, 35 mA, pitch 1:1, layer 5 mm, layer spacing 3 mm, matrix 512×512, FOV 70 cm), 111-148 MBq (3-4 mCi) of ^68Ga-NEB was injected intravenously. The whole body (from the top of skull to the middle of femur) of each volunteer was covered by 7 bed positions. The acquisition duration was 40 sec/bed position for the 5 min, 10 min and 15 min time points, 2 min/bed position for the 30 min, 45 min, 60 min, 75 min and 90 min time points.
(§2) A Siemens MMWP workstation was used for post-processing. Visual analysis was used to determine the general biodistribution and the temporal and inter-subject stability. The volume of interest (VOI) of 12 normal organs/tissues and concerned lesions were drawn on the serial images. The radioactivity concentration and standardized uptake value (SUV) in the VOIs were obtained through the software. Organ dosimetry was calculated by using organ-level internal dose assessment software. All quantitative data were expressed as mean±standard deviation.
From 5 to 90 min, no dramatic distribution change was observed, confirming the in vivo stability and long blood pool retention of ^68Ga-NEB (FIG. 28). Increased bladder accumulation was observed over time.

[3] = human, in vivo
From the text: (§3) Dosimetry study confirmed the safety with acceptable absorbed doses by critical organs even with multiple injections for one patient.
as §2
The mean absorbed radiation doses based on multiple time point PET imaging of three volunteers were similar to those based on mouse biodistribution data. The major organs that received relatively high doses were kidneys, liver, spleen, and heart wall. The bladder wall also received high exposure due to renal excretion of the radioactivity (0.0683±0.0090 mSv/MBq). The whole body absorbed dose was 0.0151±0.0001 mSv/MBq with an effective dose of 0.0179±0.0003 mSv/MBq.

[4] = Safety observation in healthy volunteers and patients; format: in vivo, human
From the text: as §3, §1
Vessel branches in and out of major organs and limbs can also be clearly identified.

Cc1cc(-c2ccc(NC(=O)CN3CCN4CCN(CC3)CC(=O)[O][68GaH][O]C(=O)C4)c(C)c2)ccc1N=Nc1ccc2c(S(=O)(=O)O)cc(S(=O)(=O)O)c(N)c2c1O [^68Ga-NEB]
Absorbed Dose, Adrenals ([1]; BALB/c): 0.0137~0.0141 mSv/MBq | Absorbed Dose, Breasts ([1]; BALB/c): 0.00881~0.01 mSv/MBq | Absorbed Dose, Gallbladder Wall ([1]; BALB/c): 0.0147~0.0149 mSv/MBq | Absorbed Dose, Heart Wall ([1]; BALB/c): 0.0329~0.0453 mSv/MBq | Absorbed Dose, LLI Wall ([1]; BALB/c): 0.0104~0.0119 mSv/MBq | Absorbed Dose, Liver ([1]; BALB/c): 0.0444~0.0575 mSv/MBq | Absorbed Dose, Lungs ([1]; BALB/c): 0.0197~0.0236 mSv/MBq | Absorbed Dose, Muscle ([1]; BALB/c): 0.00946~0.011 mSv/MBq | Absorbed Dose, Osteogenic Cells ([1]; BALB/c): 0.0133~0.0153 mSv/MBq | Absorbed Dose, Ovaries ([1]; BALB/c): 0.0108~0.0122 mSv/MBq | Absorbed Dose, Pancreas ([1]; BALB/c): 0.0625~0.0821 mSv/MBq | Absorbed Dose, Red Marrow ([1]; BALB/c): 0.00882~0.00973 mSv/MBq | Absorbed Dose, Skin ([1]; BALB/c): 0.00804~0.00925 mSv/MBq | Absorbed Dose, Small Intestine ([1]; BALB/c): 0.0114~0.0128 mSv/MBq | Absorbed Dose, Spleen ([1]; BALB/c): 0.0263~0.0317 mSv/MBq | Absorbed Dose, Stomach Wall ([1]; BALB/c): 0.0117~0.0127 mSv/MBq | Absorbed Dose, Testes ([1]; BALB/c): 0.00896~0.0103 mSv/MBq | Absorbed Dose, Thymus ([1]; BALB/c): 0.0101~0.0112 mSv/MBq | Absorbed Dose, Thyroid ([1]; BALB/c): 0.00936~0.0107 mSv/MBq | Absorbed Dose, Total Body ([1]; BALB/c): 0.0146~0.0146 mSv/MBq | Absorbed Dose, ULI Wall ([1]; BALB/c): 0.0115~0.0128 mSv/MBq | Absorbed Dose, Urinary Bladder Wall ([1]; BALB/c): 0.0102~0.0117 mSv/MBq | Absorbed Dose, Uterus ([1]; BALB/c): 0.0108~0.0123 mSv/MBq | Effective Dose Equivalent ([1]; BALB/c): 0.0251~0.0297 mSv/MBq | effective radiation dose to the patient [1]: 2.94 mSv | average standardized uptake value, Blood ([2]; 5 min after i.v.): 7.97 ± 0.15 | average standardized uptake value, Bone ([2]; 5 min after i.v.): 2.10 ± 0.26 | average standardized uptake value, Kidneys ([2]; 5 min after i.v.): 4.40 ± 0.26 | average standardized uptake value, Liver ([2]; 5 min after i.v.): 3.80 ± 0.44 | average standardized uptake value, Lung ([2]; 5 min after i.v.): 1.53 ± 0.15 | average standardized uptake value, Muscle ([2]; 5 min after i.v.): 0.53 ± 0.21 | average standardized uptake value, Pancreas ([2]; 5 min after i.v.): 2.13 ± 0.40 | average standardized uptake value, S. Intestine ([2]; 5 min after i.v.): 1.73 ± 0.25 | average standardized uptake value, Spleen ([2]; 5 min after i.v.): 4.10 ± 0.36 | average standardized uptake value, Stomach ([2]; 5 min after i.v.): 1.23 ± 0.15 | average standardized uptake value, Blood ([2]; 10 min after i.v.): 7.53 ± 0.25 | average standardized uptake value, Bone ([2]; 10 min after i.v.): 1.93 ± 0.12 | average standardized uptake value, Kidneys ([2]; 10 min after i.v.): 4.23 ± 0.49 | average standardized uptake value, Liver ([2]; 10 min after i.v.): 3.70 ± 0.61 | average standardized uptake value, Lung ([2]; 10 min after i.v.): 1.47 ± 0.29 | average standardized uptake value, Muscle ([2]; 10 min after i.v.): 0.60 ± 0.10 | average standardized uptake value, Pancreas ([2]; 10 min after i.v.): 2.03 ± 0.15 | average standardized uptake value, S. Intestine ([2]; 10 min after i.v.): 1.57 ± 0.12 | average standardized uptake value, Spleen ([2]; 10 min after i.v.): 4.07 ± 0.47 | average standardized uptake value, Stomach ([2]; 10 min after i.v.): 1.50 ± 0.20 | average standardized uptake value, Blood ([2]; 15 min after i.v.): 7.17 ± 0.35 | average standardized uptake value, Bone ([2]; 15 min after i.v.): 1.83 ± 0.15 | average standardized uptake value, Kidneys ([2]; 15 min after i.v.): 4.03 ± 0.50 | average standardized uptake value, Liver ([2]; 15 min after i.v.): 3.73 ± 0.59 | average standardized uptake value, Lung ([2]; 15 min after i.v.): 1.4 ± 0.17 | average standardized uptake value, Muscle ([2]; 15 min after i.v.): 0.60 ± 0.17 | average standardized uptake value, Pancreas ([2]; 15 min after i.v.): 1.90 ± 0.26 | average standardized uptake value, S. Intestine ([2]; 15 min after i.v.): 1.73 ± 0.12 | average standardized uptake value, Spleen ([2]; 15 min after i.v.): 4.00 ± 0.52 | average standardized uptake value, Stomach ([2]; 15 min after i.v.): 1.23 ± 0.12 | average standardized uptake value, Blood ([2]; 30 min after i.v.): 6.93 ± 0.21 | average standardized uptake value, Bone ([2]; 30 min after i.v.): 1.67 ± 0.15 | average standardized uptake value, Kidneys ([2]; 30 min after i.v.): 3.77 ± 0.29 | average standardized uptake value, Liver ([2]; 30 min after i.v.): 3.57 ± 0.46 | average standardized uptake value, Lung ([2]; 30 min after i.v.): 1.30 ± 0.17 | average standardized uptake value, Muscle ([2]; 30 min after i.v.): 0.57 ± 0.12 | average standardized uptake value, Pancreas ([2]; 30 min after i.v.): 1.67 ± 0.15 | average standardized uptake value, S. Intestine ([2]; 30 min after i.v.): 1.63 ± 0.15 | average standardized uptake value, Spleen ([2]; 30 min after i.v.): 3.90 ± 0.61 | average standardized uptake value, Stomach ([2]; 30 min after i.v.): 1.23 ± 0.06 | average standardized uptake value, Blood ([2]; 45 min after i.v.): 6.70 ± 0.26 | average standardized uptake value, Bone ([2]; 45 min after i.v.): 1.50 ± 0.20 | average standardized uptake value, Kidneys ([2]; 45 min after i.v.): 3.87 ± 0.32 | average standardized uptake value, Liver ([2]; 45 min after i.v.): 3.50 ± 0.52 | average standardized uptake value, Lung ([2]; 45 min after i.v.): 1.30 ± 0.20 | average standardized uptake value, Muscle ([2]; 45 min after i.v.): 0.53 ± 0.06 | average standardized uptake value, Pancreas ([2]; 45 min after i.v.): 1.67 ± 0.15 | average standardized uptake value, S. Intestine ([2]; 45 min after i.v.): 1.63 ± 0.06 | average standardized uptake value, Spleen ([2]; 45 min after i.v.): 3.77 ± 0.57 | average standardized uptake value, Stomach ([2]; 45 min after i.v.): 1.23 ± 0.06 | average standardized uptake value, Blood ([2]; 60 min after i.v.): 6.20 ± 0.17 | average standardized uptake value, Bone ([2]; 60 min after i.v.): 1.37 ± 0.06 | average standardized uptake value, Kidneys ([2]; 60 min after i.v.): 3.60 ± 0.10 | average standardized uptake value, Liver ([2]; 60 min after i.v.): 3.47 ± 0.47 | average standardized uptake value, Lung ([2]; 60 min after i.v.): 1.23 ± 0.06 | average standardized uptake value, Muscle ([2]; 60 min after i.v.): 0.50 ± 0.00 | average standardized uptake value, Pancreas ([2]; 60 min after i.v.): 1.43 ± 0.15 | average standardized uptake value, S. Intestine ([2]; 60 min after i.v.): 1.47 ± 0.15 | average standardized uptake value, Spleen ([2]; 60 min after i.v.): 3.73 ± 0.42 | average standardized uptake value, Stomach ([2]; 60 min after i.v.): 1.10 ± 0.00 | average standardized uptake value, Blood ([2]; 75 min after i.v.): 6.03 ± 0.12 | average standardized uptake value, Bone ([2]; 75 min after i.v.): 1.27 ± 0.12 | average standardized uptake value, Kidneys ([2]; 75 min after i.v.): 3.43 ± 0.15 | average standardized uptake value, Liver ([2]; 75 min after i.v.): 3.43 ± 0.49 | average standardized uptake value, Lung ([2]; 75 min after i.v.): 1.10 ± 0.17 | average standardized uptake value, Muscle ([2]; 75 min after i.v.): 0.47 ± 0.06 | average standardized uptake value, Pancreas ([2]; 75 min after i.v.): 1.37 ± 0.21 | average standardized uptake value, S. Intestine ([2]; 75 min after i.v.): 1.33 ± 0.21 | average standardized uptake value, Spleen ([2]; 75 min after i.v.): 4.93 ± 2.10 | average standardized uptake value, Stomach ([2]; 75 min after i.v.): 1.07 ± 0.12 | average standardized uptake value, Blood ([2]; 90 min after i.v.): 5.97 ± 0.15 | average standardized uptake value, Bone ([2]; 90 min after i.v.): 1.23 ± 0.15 | average standardized uptake value, Kidneys ([2]; 90 min after i.v.): 3.30 ± 0.20 | average standardized uptake value, Liver ([2]; 90 min after i.v.): 3.33 ± 0.58 | average standardized uptake value, Lung ([2]; 90 min after i.v.): 1.07 ± 0.12 | average standardized uptake value, Muscle ([2]; 90 min after i.v.): 0.77 ± 0.64 | average standardized uptake value, Pancreas ([2]; 90 min after i.v.): 1.37 ± 0.31 | average standardized uptake value, S. Intestine ([2]; 90 min after i.v.): 1.17 ± 0.32 | average standardized uptake value, Spleen ([2]; 90 min after i.v.): 3.57 ± 0.55 | average standardized uptake value, Stomach ([2]; 90 min after i.v.): 1.03 ± 0.15 | crossing of the blood-brain barrier ([2]; PET, normal brain tissue negligible accumulation): does not cross the blood-brain barrier | effective dose [3]: 0.0179±0.0003 mSv/MBq | mean absorbed radiation dose, bladder wall [3]: 0.0683±0.0090 mSv/MBq | radiation dose a patient would be exposed to [3]: 2.65 mSv | whole body absorbed dose [3]: 0.0151±0.0001 mSv/MBq | reported discomfort, adverse clinical events, toxicity, allergies ([4]; all healthy volunteers and patients): no discomfort or adverse clinical events, no elicited toxicity, and no allergies | adverse symptoms during the entire procedure and 2 weeks follow-up ([4]; healthy volunteers, mean injected dose 3.77±0.28 mCi): no adverse symptoms were noticed and/or reported
